Activation data for 9 molecules are collected here from patent publication US9382188B2, “Aromatic ring compound” (TAKEDA PHARMACEUTICAL COMPANY LIMITED, priority 2012, dated 2016).

This assay has as its target T1, human GPR40 (Homo sapiens, UniProt O14842).
T1 construct: expressed in transfected cells
In words: Evaluation of human GPR40 agonist activity with increase in intracellular Ca2+ concentration as an index (FLIPR Tetra). The class given is cell-based. The settings on record: test compound 1 μM; CHO(dhfr-) cells stably expressing human GPR40; 100% = activity of 1 μM WO2009/048527 Example 99.2, 0% = DMSO. Put shortly: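 CHO(dhfr-) cells stably expressing human GPR40, loaded with Calcium 5 dye in HEPES/HBSS buffer with 0.2% fatty acid-free BSA and probenecid, 1 h at 37° C. Test compound added at 1 μM final; fluorescence Ca2+ rise scaled to a reference agonist at 1 μM (100%) and DMSO (0%).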

T1 sequence (O14842 whole entry): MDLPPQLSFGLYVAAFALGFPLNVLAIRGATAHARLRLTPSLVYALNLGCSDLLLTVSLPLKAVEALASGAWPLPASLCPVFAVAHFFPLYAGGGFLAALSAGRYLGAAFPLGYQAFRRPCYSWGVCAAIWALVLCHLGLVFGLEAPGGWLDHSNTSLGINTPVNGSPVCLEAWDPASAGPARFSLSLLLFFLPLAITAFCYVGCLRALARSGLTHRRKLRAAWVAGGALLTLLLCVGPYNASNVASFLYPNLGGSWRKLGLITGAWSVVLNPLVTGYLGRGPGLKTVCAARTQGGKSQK

Molecule `CCC(C)(C)Cc1cc(OCc2cccc(C(CC(=O)O)C3CC3)c2)ccc1-c1cc(OC)ccc1F` (stereo not drawn) [Example 106, 3-cyclopropyl-3-(3-(((2-(2,2-dimethylbutyl)-2′-fluoro-5′-methoxybiphenyl-4-yl)oxy)methyl)phenyl)propanoic acid] showed an activation at 1 µM of 96%.
`CCC(C)(C)C(F)c1cc(OCc2cccc(C(CC(=O)O)C3CC3)c2)ccc1-c1cc(OC)ccc1F` (stereo not drawn) [Example 107, 3-cyclopropyl-3-(3-(((2′-fluoro-2-(1-fluoro-2,2-dimethylbutyl)-5′-methoxybiphenyl-4-yl)oxy)methyl)phenyl)propanoic acid] registered an activation at 1 µM of 126%.
The molecule `CCC(C)(C)C(O)c1cc(OCc2cccc(C(CC(=O)O)C3CC3)c2)ccc1-c1cc(OC)ccc1F` (stereo not drawn) [Example 108, 3-cyclopropyl-3-(3-(((2′-fluoro-2-(1-hydroxy-2,2-dimethylbutyl)-5′-methoxybiphenyl-4-yl)oxy)methyl)phenyl)propanoic acid] had an activation at 1 µM of 129%.
Molecule `CCC(C)(C)C(OC)c1cc(OCc2cccc(C(CC(=O)O)C3CC3)c2)ccc1-c1cc(OC)ccc1F` (stereo not drawn) [Example 109, 3-cyclopropyl-3-(3-(((2′-fluoro-5′-methoxy-2-(1-methoxy-2,2-dimethylbutyl)biphenyl-4-yl)oxy)methyl)phenyl)propanoic acid] yielded an activation at 1 µM of 119%.
`CCC(C)(C)C(OCCOC)c1cc(OCc2cccc(C(CC(=O)O)C3CC3)c2)ccc1-c1cc(OC)ccc1F` (stereo not drawn) [Example 110, 3-cyclopropyl-3-(3-(((2′-fluoro-5′-methoxy-2-(1-(2-methoxyethoxy)-2,2-dimethylbutyl)biphenyl-4-yl)oxy)methyl)phenyl)propanoic acid] gave an activation at 1 µM of 94%.
With `CCC(CC)(CC)Cc1cc(OCc2cccc(C(CC(=O)O)C3CC3)c2)ccc1-c1cc(OC)ccc1F` (stereo not drawn) [Example 111, 3-cyclopropyl-3-(3-(((2-(2,2-diethylbutyl)-2′-fluoro-5′-methoxybiphenyl-4-yl)oxy)methyl)phenyl)propanoic acid], the activation at 1 µM turned out to be 111%.
As for `CCC(C)(CC)Cc1cc(OCc2cccc(C(CC(=O)O)C3CC3)c2)ccc1-c1cc(OC)ccc1F` (stereo not drawn) [Example 112, 3-cyclopropyl-3-(3-(((2-(2-ethyl-2-methylbutyl)-2′-fluoro-5′-methoxybiphenyl-4-yl)oxy)methyl)phenyl)propanoic acid], the figure is 108%; as for `COc1ccc(F)c(-c2ccc(OCc3cccc(C(CC(=O)O)C4CC4)c3)cc2CCCC(C)(C)C)c1` (stereo not drawn) [Example 113, 3-cyclopropyl-3-(3-(((2-(4,4-dimethylpentyl)-2′-fluoro-5′-methoxy-[1,1′-biphenyl]-4-yl)oxy)methyl)phenyl)propanoic acid], 102%; as for `COc1ccc(F)c(-c2ccc(OCc3cccc(C(CC(=O)O)C4CC4)c3)cc2COCC(C)(C)C)c1` (stereo not drawn) [Example 114, 3-cyclopropyl-3-(3-(((2′-fluoro-5′-methoxy-2-((neopentyloxy)methyl)-[1,1′-biphenyl]-4-yl)oxy)methyl)phenyl)propanoic acid], 103%.
